Laboratory results as given in patent US12103915B2, “TEAD inhibitors and methods of uses thereof” (Insilico Medicine IP Limited, priority 2022, dated 2024).

What was measured:
Type in all cases: binding
TEAD4 = TEAD4 (Homo sapiens, UniProt Q15561); assay: Thermal shift assay TEAD4
Description: (§1) Example B: Thermal Shift Assay
(§2) 1) Prepare a fresh dilution of Protein Thermal Shift™ Dye (Applied Biosystems, 1000×) to 8× by […].
(§3) 2) To ensure the same DMSO concentration, the compounds were diluted as follows: Prepare 10 mM stock solution of compounds;
(§4) The final DMSO concentration was 0.1%
(§5) 10 μM: Diluting stock solution to 100 μM by using PBS.
(§6) 1 μM: Diluting stock solution to 1 mM by using DMSO, then dilute to 10 μM by using PBS.
TEAD4: the stock concentration was 2.3 mg/ml; the final concentration was 0.1 mg/ml.
(§7) 4) Place the appropriate reaction plate or tubes on ice, then prepare the protein melt reactions:
(§8) 5) Pipet each reaction up and down 10 times to mix well.
(§9) 6) Seal the plate with MicroAmp™ Optical Adhesive Film, spin it at 1000 rpm for 1 minute.
(§10) 7) Set up and run on the qPCR instrument.
(§11) Using thermal Shift™ Software v1.3 to analysis.

TEAD2 = TEAD2 (Homo sapiens, UniProt Q15562); assay: Thermal shift assay TEAD2
Sequence of TEAD2 (Q15562 whole entry, species assumed): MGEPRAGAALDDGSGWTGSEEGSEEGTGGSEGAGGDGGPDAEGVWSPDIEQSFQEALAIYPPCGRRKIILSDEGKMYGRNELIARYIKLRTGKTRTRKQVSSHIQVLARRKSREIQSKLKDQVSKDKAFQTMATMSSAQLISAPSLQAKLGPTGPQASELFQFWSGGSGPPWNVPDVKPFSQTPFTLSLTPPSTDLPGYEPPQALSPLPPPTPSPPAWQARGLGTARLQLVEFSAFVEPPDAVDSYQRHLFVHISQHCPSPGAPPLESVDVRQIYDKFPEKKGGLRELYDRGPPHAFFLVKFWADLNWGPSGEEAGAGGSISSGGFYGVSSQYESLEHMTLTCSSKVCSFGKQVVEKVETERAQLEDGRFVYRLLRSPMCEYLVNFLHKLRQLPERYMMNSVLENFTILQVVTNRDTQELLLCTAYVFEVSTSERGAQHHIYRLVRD
Description: as §1, §2, §3, §4, §5, §6
(§12) TEAD1: the stock concentration was 2.9 mg/ml; the final concentration was 0.2 mg/ml. TEAD2: the stock concentration was 1.8 mg/ml; the final concentration was 0.08 mg/ml.
as §7, §8, §9, §10, §11

TEAD3 = TEAD3 (Homo sapiens, UniProt Q99594); assay: Thermal shift assay TEAD3
Sequence of TEAD3 (Q99594 whole entry, species assumed): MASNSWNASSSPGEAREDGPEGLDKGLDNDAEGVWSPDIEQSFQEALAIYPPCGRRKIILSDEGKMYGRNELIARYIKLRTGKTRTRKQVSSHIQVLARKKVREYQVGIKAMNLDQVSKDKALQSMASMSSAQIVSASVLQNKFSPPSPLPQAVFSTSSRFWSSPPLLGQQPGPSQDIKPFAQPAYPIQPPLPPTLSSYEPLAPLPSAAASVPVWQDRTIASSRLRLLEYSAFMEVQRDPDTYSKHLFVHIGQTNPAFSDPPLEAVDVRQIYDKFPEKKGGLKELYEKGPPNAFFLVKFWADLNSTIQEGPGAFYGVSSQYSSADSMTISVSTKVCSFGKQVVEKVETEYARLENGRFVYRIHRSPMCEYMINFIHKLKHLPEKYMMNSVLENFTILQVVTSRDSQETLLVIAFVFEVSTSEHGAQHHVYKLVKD
Description: as §1, §2, §3, §4, §5, §6
TEAD3: the stock concentration was 2.4 mg/ml; the final concentration was 0.1 mg/ml.
as §7, §8, §9, §10, §11

TEAD1 = TEAD1 (Homo sapiens, UniProt P28347); assay: Thermal shift assay TEAD1
Sequence of TEAD1 (P28347 whole entry, species assumed): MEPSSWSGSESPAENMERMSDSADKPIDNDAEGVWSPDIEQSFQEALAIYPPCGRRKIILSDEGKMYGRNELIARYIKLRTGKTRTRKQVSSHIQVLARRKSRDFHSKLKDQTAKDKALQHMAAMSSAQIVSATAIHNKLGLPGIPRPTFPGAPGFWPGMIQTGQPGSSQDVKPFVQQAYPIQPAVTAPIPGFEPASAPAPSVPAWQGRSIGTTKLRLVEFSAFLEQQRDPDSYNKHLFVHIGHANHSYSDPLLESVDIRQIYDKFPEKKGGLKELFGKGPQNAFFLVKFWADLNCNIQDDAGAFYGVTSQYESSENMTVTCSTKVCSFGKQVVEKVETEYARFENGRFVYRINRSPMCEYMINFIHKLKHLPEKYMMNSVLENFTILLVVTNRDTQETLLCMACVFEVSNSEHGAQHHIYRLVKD
Description: as §1, §2, §3, §4, §5, §6, §12, §7, §8, §9, §10, §11

Sequence of TEAD4 (Q15561 whole entry, species assumed): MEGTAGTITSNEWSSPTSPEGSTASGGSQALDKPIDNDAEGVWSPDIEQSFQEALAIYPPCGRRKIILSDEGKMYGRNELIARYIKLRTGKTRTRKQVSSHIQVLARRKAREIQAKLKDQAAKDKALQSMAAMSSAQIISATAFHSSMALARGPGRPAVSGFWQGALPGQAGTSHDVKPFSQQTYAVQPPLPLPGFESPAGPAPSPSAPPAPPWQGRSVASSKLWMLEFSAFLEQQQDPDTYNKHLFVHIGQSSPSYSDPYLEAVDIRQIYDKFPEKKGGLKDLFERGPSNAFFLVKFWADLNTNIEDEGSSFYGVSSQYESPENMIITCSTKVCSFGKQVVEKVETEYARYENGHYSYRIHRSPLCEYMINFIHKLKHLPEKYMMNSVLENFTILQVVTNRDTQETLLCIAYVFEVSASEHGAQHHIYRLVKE

SMILES	TEAD4 ΔTm (TEAD4) [°C]	TEAD2 ΔTm (TEAD2) [°C]	TEAD3 ΔTm (TEAD3) [°C]	TEAD1 ΔTm (TEAD1) [°C]
CNS(=O)(=O)[C@@H]1CC1c1cc(-c2ccc(C(F)(F)F)cc2)cc2cn(C)nc12 (mixture of isomers) [Example 50]	5.7	2.5	0.7	4.2
O=C(O)[C@@H]1CC1c1cc(Oc2ccc(C(F)(F)F)cc2)cn2ccnc12 (mixture of isomers) [Example 83]	3.6	8.0	1.4	2.7
CNC(=O)[C@@H]1CC1c1cc(Oc2ccc(C(F)(F)F)cc2)cn2ccnc12 (mixture of isomers) [Example 84]	3.1	6.5	1.2	1.0
Cn1cc2cc(Oc3ccc(C(F)(F)F)cc3)cc(C3C[C@H]3C(=O)N3CC4CC3[C@H](O)[C@H]4O)c2n1 (single isomer, unassigned) [Example 106]	8.5	9.9	2.2	6.4
Cn1cc2cc(Oc3ccc(C(F)(F)F)cc3)cc(C3C[C@H]3C(=O)NC[C@H]3C[C@@H](O)[C@@H](O)C3O)c2n1 (single isomer, unassigned) [Example 107]	6.1	4.9	1.1	5.0
Cn1cc2cc(Oc3ccc(C(F)(F)F)cc3)cc(C3C[C@H]3C(=O)N3CCS(=O)(=O)CC3)c2n1 (single isomer, unassigned) [Example 110]	4.1	5.2	1.0	4.1
Cn1cc2cc(Oc3ccc(C(F)(F)F)cc3)cc(C3C[C@H]3C(=O)N3CCP(C)(=O)CC3)c2n1 (single isomer, unassigned) [Example 111]	3.2	3.7	0.7	3.0
Cn1cc2cc(Oc3ccc(C(F)(F)F)cc3)cc(C3C[C@H]3C(=O)N3CC(C(=O)O)C3)c2n1 (single isomer, unassigned) [Example 113]	4.2	5.7	1.5	4.1
Cn1cc2cc(Oc3ccc(C(F)(F)F)cc3)cc(C3C[C@H]3C(=O)N3CCOC4(COC4)C3)c2n1 (single isomer, unassigned) [Example 114]	7.1	7.1	1.5	4.6
CN1CCC2(CN(C(=O)[C@@H]3CC3c3cc(Oc4ccc(C(F)(F)F)cc4)cc4cn(C)nc34)C2)C1=O (single isomer, unassigned) [Example 115]	3.5	3.5	1.3	4.2
Cn1cc2cc(Oc3ccc(C(F)(F)F)cc3)cc(C3C[C@H]3C(=O)N3C4COCC3CC(O)C4)c2n1 (single isomer, unassigned) [Example 116a]	6.1	6.1	1.8	4.6
Cn1cc2cc(Oc3ccc(C(F)(F)F)cc3)cc(C3C[C@H]3C(=O)N3C4COCC3CC(O)C4)c2n1 (single isomer, unassigned) [Example 116b]	7.1	5.3	2.2	5.5
Cn1cc2nc(Oc3ccc(C(F)(F)F)cc3)cc([C@@H]3C[C@H]3C(=O)N3C4COCC3C4)c2n1 (single isomer, unassigned) [Example 118]	6.1	6.2	1.6	4.6
Cn1cc2nc(Oc3ccc(C(F)(F)F)cc3)cc([C@@H]3C[C@H]3C(=O)N3C[C@H]4C[C@@H]3CO4)c2n1 (single isomer, unassigned) [Example 119]	4.7	6.1	1.6	4.2
Cn1cc2nc(Oc3ccc(C(F)(F)F)cc3)cc([C@@H]3C[C@H]3C(=O)N3C[C@@H]4C[C@H]3CO4)c2n1 (single isomer, unassigned) [Example 120]	4.5	6.5	1.2	4.1
Cn1cc2cc(Oc3ccc(C(F)(F)F)cc3)cc([C@@H]3C[C@H]3C(=O)N3CC4CC3CN4)c2n1 (single isomer, unassigned) [Example 122]	4.9	6.5	1.8	5.9
Cn1cc2cc(Oc3cc(F)ccc3C(F)(F)F)cc([C@@H]3C[C@H]3C(=O)N3CC(O)C3)c2n1 (single isomer, unassigned) [Example 133]	4.9	8.5	0.3	1.1
Cn1cc2cc(Oc3ccc(C(F)(F)F)cc3)cc([C@@H]3C[C@H]3C(=O)N3CCC34CC(O)C4)c2n1 (single isomer, unassigned) [Example 136]	10.3	12.4	1.7	7.1
Cn1cc2cc(Oc3cc(F)c(F)c(F)c3)cc([C@@H]3C[C@H]3C(=O)N3C[C@@H]4C[C@H]3C[C@@H]4O)c2n1 (single isomer, unassigned) [Example 138]	6.4	6.8	2.3	4.2
CNS(=O)(=O)CCc1cc(N(C)c2ccc(C(F)(F)F)cc2)cc2cn(C)nc12 [Example 49]	5.1	2.6	0.1	3.2

Continued, values first:

TEAD4 ΔTm (TEAD4) [°C]	TEAD2 ΔTm (TEAD2) [°C]	TEAD3 ΔTm (TEAD3) [°C]	TEAD1 ΔTm (TEAD1) [°C]	SMILES
11.4	13.7	2	11.3	Cn1cc2cc(Oc3ccc(C(F)(F)F)cc3)cc([C@@H]3C[C@H]3C(=O)O)c2n1 (single isomer, unassigned) [Example 16a]
12.5	14.9	15	12.1	Cn1cc2cc(Oc3ccc(C(F)(F)F)cc3)cc([C@H]3C[C@@H]3C(=O)O)c2n1 (single isomer, unassigned) [Example 16b]
4.7	10.3	0.6	5.4	[2H]C([2H])([2H])n1cc2cc(Oc3ccc(C(F)(F)F)cc3)cc([C@@H]3C[C@H]3C(=O)NC)c2n1 (single isomer, unassigned) [Example 76a]
12.6	15.4	10.9	11.5	[2H]C([2H])([2H])n1cc2cc(Oc3ccc(C(F)(F)F)cc3)cc([C@H]3C[C@@H]3C(=O)NC)c2n1 (single isomer, unassigned) [Example 76b]
6.8	10.1	1.0	4.9	Cn1cc2cc(O[C@H]3CC[C@@H](C(F)(F)F)CC3)cc([C@@H]3C[C@H]3C(=O)N3CC(O)C3)c2n1 (single isomer, unassigned) [Example 87a]
0.3	2.6	0.0	−0.4	Cn1cc2cc(O[C@H]3CC[C@@H](C(F)(F)F)CC3)cc([C@H]3C[C@@H]3C(=O)N3CC(O)C3)c2n1 (single isomer, unassigned) [Example 87b]
0.1	1.5	0.1	−0.3	Cn1cc2cc(Oc3ccc(C(F)(F)F)cn3)cc([C@@H]3C[C@H]3C(=O)N3CC(O)C3)c2n1 (single isomer, unassigned) [Example 88a]
−0.2	3.3	0.2	0.0	Cn1cc2cc(Oc3ccc(C(F)F)cc3)cc([C@@H]3C[C@H]3C(=O)N3CC(O)C3)c2n1 (single isomer, unassigned) [Example 89a]
0.6	2.6	0.2	−0.2	Cn1cc2cc(Oc3ccc(F)c(F)c3)cc([C@@H]3C[C@H]3C(=O)N3CC(O)C3)c2n1 (single isomer, unassigned) [Example 90a]
3.4	2.2	0.9	1.8	Cn1cc2nc(Oc3ccc(C(F)(F)F)cc3)nc([C@H]3C[C@@H]3C(=O)N3CC(O)C3)c2n1 (single isomer, unassigned) [Example 109b]
8.6	9.5	2.0	7.2	CO[C@H]1CN(C(=O)[C@@H]2C[C@H]2c2cc(Oc3ccc(C(F)(F)F)cc3)cc3cn(C)nc23)C[C@@H]1O (single isomer, unassigned) [Example 112a]
